# Assay results reported in US20240285502A1, “HAIR GROWTH AGENT” (ADJUVANT HOLDINGS CO., LTD., priority 2021, published 2024).
# Test system: VEGF gene expression in human dermal papilla cells
# Assay: Evaluation of human dermal papilla cell VEGF gene expression (real-time PCR)
# Assay type: cell-based
# Conditions: 72 hours stimulation, relative to negative control group, GAPDH internal standard, FIG. 1
# Protocol: The VEGF gene is expressed in dermal papilla cells, and contributes to expression of such effects as increase in hair shaft diameter and improving maximum hair shaft length and improving hair shaft elongation rate and hair shaft growth promotion at head hair, beard, eyebrows, and/or eyelashes. Human dermal papilla cells were therefore used, and evaluation was carried out with respect to increase in VEGF gene expression for the respective components. Human dermal papilla cells (Catalog No. CA60205a; derived from person; Toyobo Co., Ltd. (Japan)) were purchased, testing and evaluation being carried out with maintenance and culture of cells being performed as described in the protocol. As drugs for testing, drug solutions of the following respective concentrations (final concentrations) were prepared and used. • Comparative Example 1: 30 μM minoxidil • Working Example 1: 0.3125 μM phytosphingosine • Working Example 2: 1.25 μM phytosphingosine • Working Example 3: Liquid mixture of 30 μM minoxidil and 1.25 μM phytosphingosine A 24-well plate was seeded with human dermal papilla cells so as to obtain 6×10^3 thereof per well. Following culture for 1 day within a CO2 incubator (5% CO2; 37° C.), the culture medium was replaced with culture medium which contained the respective drugs for testing. The cell plate was thereafter returned to the CO2 incubator, and this was further cultured for 72 hours. […] The GAPDH gene was used as an internal standard, the amount of VEGF gene expression being calculated relative to the negative control group. […] Concentration of the recovered RNA was measured using a NanoDrop Lite (Catalog No. ND-LITE; Thermo Fisher Scientific K.K.), and this was stored at -80° C. until the following cDNA creation procedure. […] II cDNA synthesis 5× Ready Mix (Catalog No. NE-LS64; Nippon Genetics Co., Ltd. (Japan)) was used to synthesize cDNA. […] II cDNA synthesis 5× Ready Mix was added to 16 μL of this sample solution, and this was agitated by vortexing. […]
row,SMILES,change in amount of expression of the VEGF gene
1,"CCCCCCCCCCCCCC[C@@H](O)[C@@H](O)[C@@H](N)CO [Working Example 1, phytosphingosine]",increase in dosage-dependent fashion in the amount of expression of the VEGF gene as compared with the control group
2,"CCCCCCCCCCCCCC[C@@H](O)[C@@H](O)[C@@H](N)CO [Working Example 2, phytosphingosine]",increase in dosage-dependent fashion in the amount of expression of the VEGF gene as compared with the control group
3,CCCCCCCCCCCCCC[C@@H](O)[C@@H](O)[C@@H](N)CO [phytosphingosine],significantly greater than that which was produced as a result of action of minoxidil
